Test results as given in patent US20050096323A1, “Diketopiperazine derivatives to inhibit thrombin” (NovoScience Pharma Inc., priority 1999, published 2005).

How the values were obtained:
[1] = target: T1, thrombin (Homo sapiens, UniProt P00734); test: Thrombin inhibition constant (Ki), fluorogenic substrate assay; type: biochemical; details: Table II, method of example 9
T1 construct: purchased Sigma

[2] = target: T2, urokinase (Homo sapiens, UniProt P00749); test: Urokinase inhibition constant (Ki), fluorogenic substrate assay; type: biochemical; details: substrate N-Cbz-Gly-Gly-Arg-AMC
T2 construct: purchased Sigma
Description: (§1) The activity and selectivity of the present invention can be identified by determination of the inhibition constant (Ki) for serine proteases such thrombin and trypsin and fibrinolytic enzymes such as urokinase, plasmin and tissue plasminogen activator (tPA). All of enzymes are purchased from Sigma. The general assay conditions are as follows. The fluorogenic substrates are dissolved in DMSO and diluted using assay buffer containing 50 mM Tris.HCl (pH 7.8 at 25° C.), 0.1 M NaCl and 0.1% polyethylene glycol 8000 (PEG 8000). […] The assays were conducted using Hitachi F2500 spectrophotometer under ambient temperature and at the excitation and emission wavelengths of 383 nm and 455 nm, respectively. The typical progressive data of the enzymatic assays are shown in FIGS. 1-3, and the determination of inhibition constant (Ki) is shown in FIG. 4.

[3] = target: T3, plasmin (Homo sapiens, UniProt P00747); test: Plasmin inhibition constant (Ki), fluorogenic substrate assay; type: biochemical; details: substrate D-Ala-Leu-Lys-AMC
T3 construct: purchased Sigma
Description: as §1

[4] = target: T4, tissue plasminogen activator (tPA) (Homo sapiens, UniProt P00750); test: tPA inhibition constant (Ki), fluorogenic substrate assay; type: biochemical; details: substrate Boc-L-(p-F) FPR-ANSNH-C2H5
T4 construct: purchased Sigma
Description: as §1

[5] = test system: ICR mice; test: Clotting time (CT) of mice whole blood after administration; type: in vivo
Description: Blood samples were collected using the capillary method 0.5 h and 1.5 h after i.v. injections and 1 h and 3 h after i.g. and clotting time of whole blood was measured.

[6] = test system: SD rats; test: RT, TT, PT, APTT and FIB in rat plasma after administration; type: in vivo; design: FIB (Fibrillation) / RT (Clot Retraction Time) / TT (Thrombin Time): unit not given here; details: 2.5 mg/kg i.v.
Description: Blood was taken at 0.5 h and 1.5 h after i.v. injection and at 1 h and 3 h after i.g. and plasma RT,TT,PT,APTT and FIB were determined.

[7] = test system: SD rats; test: Weight of deep vein thrombosis (inferior vena cava thrombi) in rats; type: in vivo, rat; details: 1.25 mg/kg i.v., 4 hours
Description: The drug was administered immediately after operation and, 4 hours later, the thrombi were collected and weighted.

[8] = test system: SD rats; test: Acute myocardial infarction by coronary artery ligation in rats; type: in vivo, rat; details: for S point in electrocardiogram / T wave in electrocardiogram: reference drug 0.125 mg/kg i.v.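 As to CK (u/ml): blood collected at end of 6 h (i.v.) or 8 h (intraduodenal) ECG observation.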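 As to LDH (u/ml): blood collected at end of 6 h (i.v.) or 8 h (intraduodenal) ECG observation.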
Description: The drugs were administered 8 to 10 min after the coronary artery was ligated.

[9] = 0 min after ligation (before drug)
[10] = serum, reference drug, 0.125 mg/kg i.v.

T3 sequence (P00747 581-810 limits assumed, species assumed): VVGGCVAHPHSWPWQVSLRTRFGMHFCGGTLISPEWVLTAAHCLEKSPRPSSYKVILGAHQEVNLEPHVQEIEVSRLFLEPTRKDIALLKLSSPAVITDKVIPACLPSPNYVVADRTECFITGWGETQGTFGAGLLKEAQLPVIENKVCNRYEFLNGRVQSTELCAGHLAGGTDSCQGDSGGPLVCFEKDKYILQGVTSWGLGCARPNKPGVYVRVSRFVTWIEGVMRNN
T3 sequence (P00747 97-580 partner limits assumed, species assumed): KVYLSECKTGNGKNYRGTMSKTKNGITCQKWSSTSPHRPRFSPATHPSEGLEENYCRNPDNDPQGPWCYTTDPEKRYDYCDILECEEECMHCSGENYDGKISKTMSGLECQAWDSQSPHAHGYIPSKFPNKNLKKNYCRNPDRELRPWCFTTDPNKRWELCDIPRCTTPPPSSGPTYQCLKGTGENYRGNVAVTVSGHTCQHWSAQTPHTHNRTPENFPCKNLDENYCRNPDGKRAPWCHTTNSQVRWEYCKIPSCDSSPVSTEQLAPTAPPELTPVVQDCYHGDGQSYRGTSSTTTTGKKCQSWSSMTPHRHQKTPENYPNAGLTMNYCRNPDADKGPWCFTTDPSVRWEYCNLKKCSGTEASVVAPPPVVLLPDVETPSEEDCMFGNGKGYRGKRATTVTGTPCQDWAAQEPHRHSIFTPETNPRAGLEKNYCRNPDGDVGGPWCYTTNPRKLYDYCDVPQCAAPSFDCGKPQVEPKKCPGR
T4 sequence (P00750 36-562, species assumed): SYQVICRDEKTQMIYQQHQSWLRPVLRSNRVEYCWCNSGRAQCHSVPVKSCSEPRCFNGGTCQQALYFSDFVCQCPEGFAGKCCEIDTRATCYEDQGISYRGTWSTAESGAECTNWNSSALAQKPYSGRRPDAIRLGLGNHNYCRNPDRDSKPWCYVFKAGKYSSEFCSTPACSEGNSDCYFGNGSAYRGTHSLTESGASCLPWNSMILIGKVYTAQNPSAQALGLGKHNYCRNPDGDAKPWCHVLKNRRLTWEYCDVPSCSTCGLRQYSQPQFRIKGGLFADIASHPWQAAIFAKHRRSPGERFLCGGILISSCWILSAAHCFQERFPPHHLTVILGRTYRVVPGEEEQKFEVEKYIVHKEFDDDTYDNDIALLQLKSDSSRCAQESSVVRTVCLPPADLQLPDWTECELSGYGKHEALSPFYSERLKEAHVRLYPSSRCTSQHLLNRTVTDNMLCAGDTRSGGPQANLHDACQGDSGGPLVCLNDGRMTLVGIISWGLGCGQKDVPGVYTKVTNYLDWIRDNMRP

## CC1CNc2c(cccc2S(=O)(=O)N2C(=O)C3CC(C(C)(C)C)CCN3C(=O)C2CCCNC(=N)N)C1 (stereo not shown) [compound 4]
[1]
  Ki: 1.58 µM

## CCC1CCN2C(=O)C(CCCNC(=N)N)N(S(=O)(=O)c3cccc4c3NCC(C)C4)C(=O)C2C1 (stereo not shown) [compound 2]
[1]
  Ki: 0.061 µM

## CC1CNc2c(cccc2S(=O)(=O)N[C@@H](CCCNC(=N)N)C(=O)N2CC[C@@H](C)C[C@@H]2C(=O)O)C1 (stereo partly shown) [Argatroban, reference compound]
[2]
  Ki: 999 µM
[3]
  Ki: 372 µM
[4]
  Ki: 777 µM
[5]; 2.5 mg/kg i.v. group, before administration
  CT (clotting time of whole blood): 133.28 ± 26.21
[5]; 2.5 mg/kg i.v., 0.5 h
  CT (clotting time of whole blood): 170.33 ± 28.34
[5]; 2.5 mg/kg i.v., 1.5 h
  CT (clotting time of whole blood): 156.11 ± 32.08
[6]; 0.5 h
  APTT (Activated Partial Prothromboplastin Time): 37.9 ± 10.2
  PT (Prothrombin Time): 37.9 ± 8.6
  RT (Clot Retraction Time): 91.2 ± 15.0
  TT (Thrombin Time): 72.9 ± 20.1
[6]; 1.5 h
  APTT (Activated Partial Prothromboplastin Time): 30.1 ± 6.5
  FIB (Fibrillation): 4.0 ± 0.9
  PT (Prothrombin Time): 29.5 ± 8.5
  RT (Clot Retraction Time): 77.4 ± 10.6
  TT (Thrombin Time): 50.4 ± 12.3
[7]
  Thrombi (mg) Dry weight: 6.26 ± 3.72 mg
  Thrombi (mg) Wet weight: 18.04 ± 8.99 mg
[8]; [9]
  S point in electrocardiogram: 0.35 ± 0.16
  T wave in electrocardiogram: 0.23 ± 0.16
[8]; 10 min after ligation
  S point in electrocardiogram: 0.36 ± 0.20
  T wave in electrocardiogram: 0.21 ± 0.18
[8]; 30 min after ligation
  S point in electrocardiogram: 0.26 ± 0.15
  T wave in electrocardiogram: 0.16 ± 0.18
[8]; 6 h after ligation
  S point in electrocardiogram: 0.19 ± 0.10
  T wave in electrocardiogram: 0.11 ± 0.10
[8]; reference drug, 0.125 mg/kg i.v.
  Infarction Area (%): 23.55 ± 7.95 %
[8]; [10]
  CK (u/ml): 55.92 ± 11.46 u/ml
  LDH (u/ml): 6259.5 ± 308.6 u/ml

## CC1CNc2c(cccc2S(=O)(=O)N2C(=O)C3CC(c4ccccc4)CCN3C(=O)C2CCCNC(=N)N)C1 (stereo not shown) [compound 3]
[1]
  Ki: 0.91 µM
